In paper PMC2888031 (Bioorganic & medicinal chemistry, 2009):
“Also recorded” adds a separate entry of the source.

What follows are molecules tested on S. aureus (assay: S. aureus culture growth in the presence of 500 µM inhibitor). Details: vs control cultures in 2.5% DMSO (Fig. 4).
Format: cell-based, Staphylococcus aureus

| Structure (SMILES) | effect on S. aureus growth |
| --- | --- |
| CC1=NN(c2ccccc2)C(=S)/C1=C/Nc1ccccn1 [3–17] | do not substantially affect bacterial growth |
| CCSc1c(S)cnn(-c2ccccc2)c1=O [2–9] | do not significantly inhibit S. aureus growth; also recorded: not bactericidal; also recorded: do not impair microbial growth in cell culture |
| COc1c(S)cnn(-c2cccc(Cl)c2)c1=O [Compound 2] | only modestly perturb growth |
| CC1=NN(c2ccccc2)C(=S)/C1=C/Nc1ccc(Br)cc1 [Compound 3-1] | do not substantially affect bacterial growth |
| CC1=NN(c2ccccc2)C(=S)/C1=C/Nc1ccc(/N=N/c2ccccc2)cc1 [3–9] | do not substantially affect bacterial growth; also recorded: non-bacteriocidal |
| CC1=NN(c2ccccc2)C(=S)/C1=C/Nc1c(Br)cc(Br)cc1Br [3–12] | do not substantially affect bacterial growth; also recorded: no detrimental effect to bacterial viability; also recorded: non-bacteriocidal; also recorded: do not impair microbial growth in cell culture |
| CC1=NN(c2ccccc2)C(=S)/C1=C/Nc1ccc([N+](=O)[O-])cc1 [Compound 3] | only modestly perturb growth |
| CCOc1cnn(-c2cccc(C)c2)c(=O)c1S [2–20] | do not significantly inhibit S. aureus growth; also recorded: not bactericidal |
| Cc1ccc(N2C(=O)/C(=C/c3cc([N+](=O)[O-])cc(Br)c3O)SC2=S)c(C)c1 [Compound 1] | toxic |

These molecules were tested against Bacillus anthracis sortase enzyme (BaSrtA) (Bacillus anthracis, UniProt P0DPQ5) (assay: biochemical). Details: not given.
Chain of Bacillus anthracis sortase enzyme (BaSrtA) (P0DPQ5 57-210 limits assumed): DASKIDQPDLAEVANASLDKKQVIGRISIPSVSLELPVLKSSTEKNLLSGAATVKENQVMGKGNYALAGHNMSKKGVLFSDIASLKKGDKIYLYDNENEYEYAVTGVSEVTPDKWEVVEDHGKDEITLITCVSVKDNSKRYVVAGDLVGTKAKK

| Structure (SMILES) | IC50 [µM] |
| --- | --- |
| CC1=NN(c2ccccc2)C(=S)/C1=C/Nc1c(Br)cc(Br)cc1Br [3–12] | 1.7 ± 0.2 |
